We go through two substances from US10689622B2, “Culture medium for proliferating stem cell, which contains sulfated compound” (AJINOMOTO CO., INC., priority 2012, dated 2020).

The target in data set [1] is T1, bFGF (Homo sapiens, UniProt P09038).
T1 construct: purchased Lonza (via TAKARA BIO INC.) Ser. No. 00/190,632
Description: Evaluation of bFGF stabilization in Lonza serum-free medium (ELISA). The data set is classed as biochemical. Conditions: for effectiveness ELISA: effectiveness in ELISA evaluation of mesenchymal stem cells (medium), 4° C. control ratio. Summed up:
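Compound in PBS diluted 10-fold into serum-free medium and held sealed at 37 °C for 7 days (some sets 3 days). Remaining bFGF quantified by human bFGF sandwich ELISA against a standard curve. Controls were compound-free PBS-medium kept at 37 °C or 4 °C for the same period.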

The nature of data set [2]: Measurement of content level of sulfur in test compound (ICP). To be noted: ICPS-8100, evaluation samples containing 0.01 wt % test compound. The data set is classed as physicochemical. The source says:
The content level of sulfur in the sulfated saccharide is generally not less than 5 wt %, preferably not less than 10 wt %, more preferably not less than 15 wt %, and the upper limit is generally not more than 40 wt %, preferably not more than 35 wt %, more preferably not more than 30 wt %. […] Here, the content level of sulfur is a proportion in wt % of sulfur derived only from the sulfate group in sulfated saccharides, which can be measured by a method known in the field (e.g., rhodizonate method, elemental analysis or luminescent spectral analysis).
The content level of sulfur in the sulfated polymer is generally not less than 5 wt %, preferably not less than 10 wt %, more preferably not less than 15 wt %, and the upper limit is generally not more than 40 wt %. […] Here, the content level of sulfur is a proportion in wt % of sulfur in the sulfated polymer, which can be measured by a method known in the field such as rhodizonate method, elemental analysis or luminescent spectral analysis).
The relationship between the content level of sulfur in a test compound (sulfur content) and the cell proliferation promoting effect was examined. The sulfur content was measured using ICPS-8100 manufactured by SHIMADZU CORPORATION and analyzed using ICPS-8000 series Ver1.03. As the reference standard of sulfur, the standard for ICP-MS manufactured by Accu Standard was used. Sulfur reference standard solutions (0, 1, 10, 30, 50 ppm) were prepared, and the sulfur content of the evaluation samples containing 0.01 wt % test compound was measured by an analytical curve method.

Data set [3] concerns Human bone marrow-derived mesenchymal stem cells. Description: Mesenchymal stem cell proliferation system (cell number by DNA quantification). To be noted: growth of mesenchymal stem cell, control ratio.
Data set [4] deals with T1, bFGF. Description: Evaluation of bFGF stabilization in Essential 8 medium (ELISA). To be noted: 37° C. for 7 days. Format: biochemical. Summed up: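 Test compound in PBS diluted 10-fold into serum-free medium (Essential 8 or ReproFF2), held sealed at 37° C for 7 days; remaining bFGF quantified by ELISA against a standard curve. Controls: PBS without compound diluted into each medium, held 7 days at 37° C or 4° C.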

Setting [5] is: Lonza serum-free medium, 37° C. for 7 days, test compound 25 ng/ml.
Where [6] appears, read: Lonza serum-free medium, 37° C. for 7 days, test compound 250 ng/ml.
The mark [7] stands for this setting: Lonza serum-free medium, 37° C. for 7 days, test compound 25 μg/ml.
[8] abbreviates: Lonza serum-free medium, 37° C. for 7 days, test compound 250 μg/ml.

T1 sequence (P09038 143-288): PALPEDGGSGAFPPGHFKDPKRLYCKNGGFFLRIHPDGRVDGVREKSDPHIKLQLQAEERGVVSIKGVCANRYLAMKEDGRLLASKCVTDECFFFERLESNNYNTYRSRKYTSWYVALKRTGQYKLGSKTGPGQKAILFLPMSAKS

Consider erythritol SO3Na, for which the “concentration showing a suppressive effect on a decrease in the bFGF concentration in the medium” value in data set [1] (Lonza serum-free medium, 37° C. for 3 days) is listed as “not less than 25 μg/ml”. Besides, the “bFGF concentration relative to that of 4° C. control (ELISA)” value (“bFGF concentration relative to that” below) in data set [1] (Lonza serum-free medium, 37° C. for 3 days, test compound 25 ng/ml) was “x (bFGF concentration was less than 10% relative to that of 4 °C control)”; in data set [1] (Lonza serum-free medium, 37° C. for 3 days, test compound 250 ng/ml), “x (bFGF concentration was less than 10% relative to that of 4 °C control)”; in data set [1] (Lonza serum-free medium, 37° C. for 3 days, test compound 25 μg/ml), “++ (bFGF concentration was not less than 50% and less than 70% relative to that of 4 °C control)”; in data set [1] (Lonza serum-free medium, 37° C. for 3 days, test compound 250 μg/ml), “+++ (bFGF concentration was not less than 70% relative to that of 4 °C control)”; in data set [1] (setting [5]) it was “x (bFGF concentration was less than 10% relative to that of 4 °C control)”; in data set [1] (setting [6]) it was “x (bFGF concentration was less than 10% relative to that of 4 °C control)”. Further, the “bFGF concentration relative to that” value is “x (bFGF concentration was less than 10% relative to that of 4 °C control)” in data set [1] (setting [7]); “+ (bFGF concentration was not less than 30% and less than 50% relative to that of 4 °C control)” in data set [1] (setting [8]); “x (bFGF concentration was less than 10% relative to that of 4 °C control)” in data set [4] (test compound 250 pg/ml); “x (bFGF concentration was less than 10% relative to that of 4 °C control)” in data set [4] (test compound 25 ng/ml); “x (bFGF concentration was less than 10% relative to that of 4 °C control)” in data set [4] (test compound 250 ng/ml); “+ (bFGF concentration was not less than 30% and less than 50% relative to that of 4 °C control)” in data set [4] (test compound 25 μg/ml). The “bFGF concentration relative to that” value in data set [4] (test compound 250 μg/ml) is “+++ (bFGF concentration was not less than 70% relative to that of 4 °C control)”. Also, the “effectiveness ELISA” value in data set [1] is recorded as “+ (+ 30%<)”. Further, in data set [2], the “sulfur content Found (inorganic analysis)” value came out at 16 wt %. In addition, the effectiveness cells result in data set [3] was “◯ (◯ not leas than 100%)”. Further, in data set [4], the “concentration showing a suppressive effect on a decrease in the bFGF concentration of the medium” value is on record as “not less than 25 μg/ml”.

Turning to gluconolactone-SO3Na, the “bFGF concentration relative to that” value in data set [1] (setting [5]) was “x (bFGF concentration was less than 10% relative to that of 4 °C control)”; in data set [1] (setting [6]), “x (bFGF concentration was less than 10% relative to that of 4 °C control)”; in data set [1] (setting [7]), “++ (bFGF concentration was not less than 50% and less than 70% relative to that of 4 °C control)”; in data set [1] (setting [8]) it was “x (bFGF concentration was less than 10% relative to that of 4 °C control)”; in data set [4] (test compound 250 pg/ml), “x (bFGF concentration was less than 10% relative to that of 4 °C control)”; in data set [4] (test compound 25 ng/ml), “x (bFGF concentration was less than 10% relative to that of 4 °C control)”. Further, the “bFGF concentration relative to that” value in data set [4] (test compound 250 ng/ml) was “x (bFGF concentration was less than 10% relative to that of 4 °C control)”; in data set [4] (test compound 25 μg/ml) it was “++ (bFGF concentration was not less than 50% and less than 70% relative to that of 4 °C control)”; in data set [4] (test compound 250 μg/ml) it was “+++ (bFGF concentration was not less than 70% relative to that of 4 °C control)”. Moreover, the “concentration at which a decrease in the protein amount of FGF is not suppressed” value in data set [1] (as shown in the Examples (methods of Examples I-1 and II-1)) is recorded as “not more than 2.5 μg/ml”. Further, the “effectiveness ELISA” value in data set [1] was “++ (++ 50%<)”. In addition, the “sulfur content Found (inorganic analysis)” value in data set [2] worked out at 14 wt %. Moreover, the effectiveness cells result in data set [3] was “◯ (◯ not leas than 100%)”. In addition, in data set [4], the “concentration showing a suppressive effect on a decrease in the bFGF concentration of the medium” value is “not less than 25 μg/ml”.
